Experiment [1] has as its target T1, IgG-Fc of anti-TNFα monoclonal antibody (Homo sapiens, UniProt P01857).
T1 construct: a Fc region of a heavy chain is composed of CH2 and CH3; purchased Mitsubishi Tanabe Pharma Corporation Remicade
In words: Binding response versus peptide concentration on immobilized IgG-Fc (Biacore). The following applies: about 10000 RU immobilized, peptide 25-200 nM, response 1 minute after addition, SEQ ID NO: 14 specifically 0.4 to 0.6. On the technique in general: Surface plasmon resonance follows binding to a sensor surface in real time, without labels.

The test system of experiment [2] is IgG-Fab of anti-TNFα monoclonal antibody. As to the kind of experiment: Binding response versus peptide concentration on immobilized IgG-Fab (Biacore). The following applies: about 10000 RU immobilized, peptide 25-200 nM, response 1 minute after addition, SEQ ID NO: 14 specifically 0.4 to 0.6.
A further experiment deals with T2, Anti-RSV antibody - Fc (Homo sapiens, UniProt P01857).
T2 construct: a Fc region of a heavy chain is composed of CH2 and CH3; purchased CHUGAI PHARMACEUTICAL CO., LTD; Synagis
As to the kind of experiment: Biacore surface plasmon resonance affinity for IgG-Fc of anti-RSV monoclonal antibody. In kind it is binding. The source says:
(§1) A humanized monoclonal IgG product as a raw material was fragmented into a Fab fragment and a Fc fragment using papain, and only the Fab fragment was separated and purified. Hereinafter, a method for producing IgG-Fc/IgG-Fab derived from anti-RSV monoclonal antibody (generic name: Palivizumab) is described. The term “RSV” is an abbreviation of RS virus. In the present disclosure, when other IgG-Fc and IgG-Fab were used for evaluation, the fragments were basically prepared in a similar method.
(§2) Specifically, a humanized monoclonal IgG product (“Synagis” manufactured by CHUGAI PHARMACEUTICAL CO., LTD., in the case of anti-RS virus monoclonal agent) was dissolved in a buffer for papain treatment (0.1M AcOH—AcONa, 2 mM EDTA, 1 mM cysteine, pH 5.5), and agarose immobilized by papain (“Papain Agarose from papaya latex” manufactured by SIGMA) was added thereto. The mixture was incubated with stirring by a rotator at 37° C. for about 8 hours. The IgG-Fc was purified from the reaction mixture which contained both of a Fab fragment and a Fc fragment and which was separated from the agarose immobilized by papain by recovering the IgG-Fc as a flow-through fraction of an affinity chromatography using Kappa Select column (manufactured by GE Healthcare Bioscience). The IgG-Fab was purified by recovering the IgG-Fab as a flow-through fraction in an affinity chromatography using KanCapA column (manufactured by GE Healthcare Bioscience). The obtained crude IgG-Fc solution was subjected to purification by gel filtration chromatography using Superdex 75 10/300 GL column to obtain IgG-Fc solution. In the chromatography, a standard buffer was used for equilibration and separation. The obtained crude IgG-Fab solution was similarly subjected to purification. […]
(§3) The affinity of the peptide obtained in the above-described Example 1(2) for the Fc region and Fab region of anti-RSV monoclonal antibody was evaluated using a biosensor Biacore3000 (manufactured by GE Healthcare Bioscience) utilizing surface plasmon resonance. […]

In another experiment the test system is Anti-RSV antibody - Fab. In words: Biacore surface plasmon resonance affinity for IgG-Fab of anti-RSV monoclonal antibody. In kind it is binding, human.
Source text: as §1, §2, §3

For a further experiment, the system named is Anti-EGFR antibody - Fab. As to the kind of experiment: Biacore surface plasmon resonance affinity for IgG-Fab of anti-EGFR monoclonal antibody. It counts as binding. The method, then:
The affinity of the peptide obtained in the above-described Example 1(2) for the Fc region and Fab region of anti-RSV monoclonal antibody was evaluated using a biosensor Biacore3000 (manufactured by GE Healthcare Bioscience) utilizing surface plasmon resonance. In the present Example, the IgG-Fc or IgG-Fab obtained in the above-described Example 2(1) was immobilized on a sensor tip, and the peptide solution was flowed across the sensor tip to detect the interaction between the two. The IgG-Fab or IgG-Fc was immobilized on a sensor tip CM5 by amine coupling method using N-hydroxysuccinimide (NHS) and N-ethyl-N′-(3-dimethylaminopropyl)carbodiimide hydrochloride (EDC), and ethanolamine was used for blocking. All of the sensor tip and reagents for immobilization was manufactured by GE Healthcare Bioscience. The IgG-Fab solution was diluted to about 10 times using a buffer for immobilization (10 mM AcOH—AcONa, pH 4.5), and the IgG-Fab was immobilized on the sensor tip in accordance with the protocol attached to the Biacore 3000. In addition, a reference cell as negative control was also prepared by activating another flow cell on the tip with EDC/NHS and then immobilizing ethanolamine only. Peptide solutions having concentrations of 16 nM, 64 nM or 256 nM were prepared using a running buffer (20 mM NaH2PO4—Na2HPO4, 150 mM NaCl, 0.005% P-20, pH 7.4). Each peptide solution was added to the sensor tip in a flow rate of 40 μL/min for 1 minute. Bonding response curves at the time of addition (association phase, 1 minute) and after the addition (dissociation phase, 1 minute) were sequentially obtained at a measurement temperature of 25° C. […]
(§4) Also, the affinity of the peptide according to the present invention (SEQ ID NO: 2) for IgG-Fab prepared from anti-EGFR monoclonal antibody (“Erbitux” sold by Bristol-Myers Squibb) and anti-TNFα monoclonal antibody (“Remicade” sold by Mitsubishi Tanabe Pharma Corporation) was evaluated. The IgG-Fab was prepared in a similar manner to the above-described (1), and the affinity was basically evaluated in a similar manner to the above-described (2). […]

Another experiment deals with Anti-TNFα antibody - Fab. In words: Biacore surface plasmon resonance affinity for IgG-Fab of anti-TNFα monoclonal antibody. In kind it is binding. On the procedure:
The affinity of the peptide obtained in the above-described Example 1(2) for the Fc region and Fab region of anti-RSV monoclonal antibody was evaluated using a biosensor Biacore3000 (manufactured by GE Healthcare Bioscience) utilizing surface plasmon resonance. In the present Example, the IgG-Fc or IgG-Fab obtained in the above-described Example 2(1) was immobilized on a sensor tip, and the peptide solution was flowed across the sensor tip to detect the interaction between the two. The IgG-Fab or IgG-Fc was immobilized on a sensor tip CM5 by amine coupling method using N-hydroxysuccinimide (NHS) and N-ethyl-N′-(3-dimethylaminopropyl)carbodiimide hydrochloride (EDC), and ethanolamine was used for blocking. All of the sensor tip and reagents for immobilization was manufactured by GE Healthcare Bioscience. The IgG-Fab solution was diluted to about 10 times using a buffer for immobilization (10 mM AcOH—AcONa, pH 4.5), and the IgG-Fab was immobilized on the sensor tip in accordance with the protocol attached to the Biacore 3000. […]
as §4
Each peptide was prepared in a similar method to the above-described Example 1 except that the combination of single-stranded oligo DNAs shown in Table 3 was used for preparing expression plasmid. […] As representative data, the affinity for IgG-Fab of anti-TNFα monoclonal antibody was evaluated by a similar manner to the above-described Example 2. […] For example, the value in the left graph is logarithm (Log 10) of a value calculated by dividing an affinity constant (KA) of each peptide by an affinity constant of SEQ ID NO: 2. […]

A further experiment deals with Fab region. The conditions noted are these: Non-patent Documents 1 and 2; cited from earlier work.
A further experiment has as its system Fab fragment. In words: Association constant of wild Protein G to Fab fragment in Biacore system. In kind it is binding. The following applies: 25° C., pH 7.4. The source says:
For example, as a binding parameter, association constant (KA) and dissociation constant (KD) can be used ([NT] et al., “Real-Time Analysis Experimental Method for Interaction Between Biological Substances”, Springer-Verlag Tokyo, 1998, p. 41). An association constant between the present invention peptide and a Fc fragment or a Fab fragment can be measured by immobilizing a Fc fragment or a Fab fragment on a sensor tip and adding the present invention peptide into a flow channel under a condition of the temperature of 25° C. and pH 7.4 in Biacore system. In an experiment utilizing Biacore system, the order of a parameter may be largely changed depending on an experimental condition, an analysis method and/or the kind of used original IgG. Under such a circumstance, when an evaluation is also conducted by using a wild Protein G in the same experimental condition and analysis method, it becomes standard whether the measured association constant is larger or not in comparison with the association constant of wild Protein G to a Fab region. The performance of a conventional wild Protein G is not sufficient as a peptide which binds to both of a Fc region and a Fab region of an immunoglobulin G, since the binding force thereof to a Fab region is not sufficient. […] A wild Protein G is easily available as a commercial reagent for study. […]

[3] abbreviates: Anti-RSV antibody - Fc immobilized, 25° C., pH 7.4, 1:1 binding model.
Where [4] appears, read: Anti-RSV antibody - Fab immobilized, 25° C., pH 7.4, 1:1 binding model.

For “SEQ ID NO: 14: IgG-binding peptide; difference from SEQ ID NO: 2: Xaa21 = Asp, Xaa28 = Lys (TTYKLILNGKTLTGYTTAIADDAATAEKVLKQFANDNGIDGEWTYDDATKTFTVTE; Immunoglobulin-binding peptide)”, the “inclination of approximate curve of binding response versus peptide concentration” value in experiment [1] and in experiment [2] was “about 0.5” in each case.
In the case of “SEQ ID NO: 2: IgG-binding peptide (SpG mutant) having the amino acid sequence of SEQ ID NO: 2, with N-terminal Gly-Pro-Leu-Gly-Ser from the vector (TTYKLILNGKTLTGYTTAIAADAATAEIVLKQFANDNGIDGEWTYDDATKTFTVTE; N-terminal vector-derived residues; Immunoglobulin-binding peptide)”, the koff (commonly the rate constant with which the complex falls apart) in the experiment with Anti-RSV antibody - Fc (setting [3]) amounted to 0.028 s⁻¹; in the experiment on Anti-RSV antibody - Fab (setting [4]) it was 0.003 s⁻¹; with Anti-EGFR antibody - Fab (peptide 25, 100, 400 nM), 0.039 s⁻¹; with Anti-TNFα antibody - Fab (peptide 25, 100, 400 nM) it was 0.01 s⁻¹. Moreover, the kon was found to be 97000 s/M with Anti-RSV antibody - Fc (setting [3]); 66000 s/M with Anti-RSV antibody - Fab (setting [4]); 252000 s/M in the experiment with Anti-EGFR antibody - Fab (peptide 25, 100, 400 nM); 413000 s/M in the experiment on Anti-TNFα antibody - Fab (peptide 25, 100, 400 nM). Also, the KA worked out at 3.5e+06 M⁻¹ with Anti-RSV antibody - Fc (Anti-RSV antibody - Fc, KA=kon/koff); 2e+07 M⁻¹ in the experiment on Anti-RSV antibody - Fab (Anti-RSV antibody - Fab, KA=kon/koff); 6.5e+07 M⁻¹ with Anti-EGFR antibody - Fab (KA=kon/koff); 4e+07 M⁻¹ with Anti-TNFα antibody - Fab (KA=kon/koff).
Turning to “Protein G: IgG-binding cell wall protein produced by Streptococcus sp. classified into Group G”, the “association constant (KA) to a Fab region, times less than that to a Fc region” value in the experiment with Fab region is listed as 10 times.
Regarding “wild Protein G: conventional wild Protein G, available as a commercial reagent for study”, the “association constant KA to a Fab fragment, as an order” value in the experiment on Fab fragment was “about 10^5”.

The record behind these values is patent US10494414B2, “Immunoglobulin G-binding peptide” (KANEKA CORPORATION, priority 2014, dated 2019).
